These results are taken from ChEMBL document CHEMBL3091343, “Nicotinamide phosphoribosyltransferase inhibitors, design, preparation, and structure-activity relationship” (J Med Chem, 2013).

Test [1] deals with MCF7. In words: Cytotoxicity against human MCF-7 cells assessed as growth inhibition after 72 hrs by WST-1 assay. It counts as functional, cell-based. As to conditions: MCF7, 72 h.
In test [2] the target is Nicotinamide phosphoribosyltransferase (Homo sapiens, UniProt P43490). Briefly: Inhibition of NAMPT in human HepG2 cells using [14C]-nicotinamide/PRPP as substrate assessed as formation of [14C]-nicotinamide mononucleotide after 1 hr by liquid scintillation counting analysis. It counts as cell-based.
Test [3] deals with A2780. Briefly: Cytotoxicity against human A2780 cells assessed as growth inhibition after 72 hrs by WST-1 assay. It counts as functional, cell-based. As to conditions: A2780, 72 h. On the technique in general: Tetrazolium assays rely on reduction of a dye to a coloured formazan, in cell work by metabolically active cells.

Each structure is given as a SMILES string.

Chain of Nicotinamide phosphoribosyltransferase (P43490 whole entry): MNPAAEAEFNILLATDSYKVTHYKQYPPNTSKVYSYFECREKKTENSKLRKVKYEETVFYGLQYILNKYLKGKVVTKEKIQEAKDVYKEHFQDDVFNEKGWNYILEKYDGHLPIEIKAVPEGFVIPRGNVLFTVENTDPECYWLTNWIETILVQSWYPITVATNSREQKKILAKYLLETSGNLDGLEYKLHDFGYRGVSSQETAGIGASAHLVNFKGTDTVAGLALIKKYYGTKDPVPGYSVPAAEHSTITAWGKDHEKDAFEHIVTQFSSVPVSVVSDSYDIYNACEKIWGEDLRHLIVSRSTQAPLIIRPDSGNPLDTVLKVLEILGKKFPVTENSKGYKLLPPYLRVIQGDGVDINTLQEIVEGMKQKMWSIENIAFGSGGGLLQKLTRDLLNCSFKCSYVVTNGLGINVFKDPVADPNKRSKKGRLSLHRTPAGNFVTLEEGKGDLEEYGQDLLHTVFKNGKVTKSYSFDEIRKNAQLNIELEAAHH

In the case of `O=C1C(=O)C(Nc2ccncc2)C1NCCCCCS(=O)(=O)N(OCCN1CCOCC1)C1CCCCC1` (configuration not stated), the IC50 stood at 35.8 nM in test [1], 49.6 nM in test [2] and 0.57 nM in test [3].

Take `N#C/N=C(\NCCCCCCC(=O)N(OCCN1CCOCC1)C1CCCCC1)Nc1ccncc1`: the IC50 came to 0.42 nM in test [1], 0.2 nM in test [2] and 0.1 nM in test [3].

On to `N#C/N=C(\NCCCCCCS(=O)(=O)N(CCCN1CCOCC1)C1CCCCC1)Nc1ccncc1`, for which the IC50 in test [1] stood at 0.11 nM; in test [2] it was 2.4 nM; in test [3], 0.16 nM.

Turning to `N#CNC(=Nc1ccncc1)NCCCCCCS(=O)(=O)NOCC1CCCCC1`, the IC50 was found to be 3.4 nM in test [1], 2.4 nM in test [2] and 0.16 nM in test [3].

As for `N#C/N=C(\NCCCCCCC(=O)N(Cc1ccccc1)OC1CCCCC1)Nc1ccncc1`, the IC50 was 1 nM in test [1], 38.5 nM in test [2] and 0.055 nM in test [3].

On to `N#C/N=C(\NCCCCCCS(=O)(=O)N(CCN1CCOCC1)OCc1ccccc1)Nc1ccncc1`, for which the IC50 in test [1] came to 0.63 nM; in test [3] it was 0.053 nM.

Turning to `O=C(CCCCCCNC(=S)NCc1cccnc1)N(OCCN1CCOCC1)C1CCCCC1`, the IC50 is 5.5 nM in test [1], 8.2 nM in test [2] and 0.91 nM in test [3].

With `O=C1C(=O)C(Nc2ccncc2)C1NCCCCCCCS(=O)(=O)N(OCCN1CCOCC1)C1CCCCC1` (configuration not stated), the IC50 in test [1] amounted to 8 nM; in test [2], 3.6 nM; in test [3], 0.49 nM.

As to `O=C1C(=O)C(Nc2ccncc2)C1NCCCCCCS(=O)(=O)N(CCN1CCOCC1)OCC1CCCCC1` (configuration not stated), the IC50 was 10.8 nM in test [1] and 0.73 nM in test [3].

Turning to `N#C/N=C(\NCCCCCCCC(=O)N(Cc1ccccc1)OCCN1CCOCC1)Nc1ccncc1`, the IC50 in test [2] amounted to 4.4 nM; in test [3] it was 0.01 nM.

Consider `N#C/N=C(\NCCCCCS(=O)(=O)N(OCCN1CCOCC1)C1CCCCC1)Nc1ccncc1`, for which the IC50 was 0.036 nM in test [1] and 0.011 nM in test [3].

Regarding `C[C@H](CCCCCN/C(=N\C#N)Nc1ccncc1)C(=O)NOC1CCCCC1`, the values for the IC50 in test [1] and in test [3] were 38.3 nM and 3.9 nM, respectively.

As to `N#CNC(=Nc1ccncc1)NCCCCCCC(=O)NOC1CCCCC1`, the IC50 in test [1] came out at 940 nM; in test [2], 1.1 nM; in test [3], 35 nM.

As to `O=C(NCCCCCCS(=O)(=O)N(CCN1CCOCC1)CC1CCCCC1)NCc1cccnc1`, the results for the IC50 in test [1], in test [2] and in test [3] were 0.93 nM, 11.8 nM and 0.17 nM, respectively.

Consider `O=C(NCCCCCCS(=O)(=O)N(CCN1CCOCC1)CC1CCCCC1)Nc1ccncc1`, for which the IC50 in test [1] is 1.4 nM; in test [2], 133 nM; in test [3] it was 0.56 nM.

Consider `O=C(NCCCCCCS(=O)(=O)N(OCCN1CCOCC1)C1CCC1)NCc1cccnc1`, for which the IC50 in test [1] was determined as 11 nM; in test [3], 2.2 nM.

A word on the IC50: it is the concentration that inhibits the measured activity by half.
